According to ChEMBL document CHEMBL1132301, “Carbonic anhydrase inhibitors. Synthesis of water-soluble, topically effective, intraocular pressure-lowering aromatic/heterocyclic sulfonamides containing cationic or anionic moieties: is the tail more important than the ring?” (J Med Chem, 1999):
Values after ≈ are worked out from the molar mass of the structure shown. Each block holds one molecule with its values, some of them ahead of it.

Assays:
Oryctolagus cuniculus [1] = test: In vivo fall of IOP of normotensive rabbits after treatment with 1 drop(50 microL) of […]% solution of CA inhibitor with pH value 8.5 into the eye at 60 min; format: functional
Oryctolagus cuniculus [2] = species on record: Oryctolagus cuniculus; format: functional, Eye
Description: In vivo fall of IOP of normotensive rabbits after treatment with 1 drop(50 microL) of 2% solution of CA inhibitor with pH value 5.5 into the eye at 30 min

Oryctolagus cuniculus [3] = species on record: Oryctolagus cuniculus; format: functional, Eye; remark: listed apart in the source
Description: In vivo fall of IOP of normotensive rabbits after treatment with 1 drop(50 microL) of 2% solution of CA inhibitor with pH value 5.5 into the eye at 60 min

Oryctolagus cuniculus [4] = species on record: Oryctolagus cuniculus; format: functional, Eye; remark: listed apart in the source
Description: In vivo fall of IOP of normotensive rabbits after treatment with 1 drop(50 microL) of 2% solution of CA inhibitor with pH value 5.5 into the eye at 0 min

Oryctolagus cuniculus [5] = species on record: Oryctolagus cuniculus; format: functional, Eye; remark: listed apart in the source
Description: In vivo fall of IOP of normotensive rabbits after treatment with 1 drop(50 microL) of 2% solution of CA inhibitor with pH value 5.5 into the eye at 90 min.

Carbonic anhydrase 2 [6] = target: T1, Carbonic anhydrase 2 (Homo sapiens, UniProt P00918)
Description: Inhibitory activity against human cloned Carbonic anhydrase II (hCA II, cytosolic form).

Carbonic anhydrase 1 [7] = target: T2, Carbonic anhydrase 1 (Homo sapiens, UniProt P00915)
T2 sequence (P00915 whole entry): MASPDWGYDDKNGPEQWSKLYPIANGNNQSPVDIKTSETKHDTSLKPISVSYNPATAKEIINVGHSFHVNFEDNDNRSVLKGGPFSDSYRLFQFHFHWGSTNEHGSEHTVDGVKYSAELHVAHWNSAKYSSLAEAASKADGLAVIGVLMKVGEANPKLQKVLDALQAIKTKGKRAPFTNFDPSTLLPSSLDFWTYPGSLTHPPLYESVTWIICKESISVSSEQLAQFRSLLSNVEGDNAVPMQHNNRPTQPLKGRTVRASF
Description: Inhibition of human cloned Carbonic anhydrase I (hCA I,cytosolic form)

Carbonic anhydrase 4 = target: T3, Carbonic anhydrase 4 (Bos taurus, UniProt Q95323)
T3 sequence (Q95323 whole entry): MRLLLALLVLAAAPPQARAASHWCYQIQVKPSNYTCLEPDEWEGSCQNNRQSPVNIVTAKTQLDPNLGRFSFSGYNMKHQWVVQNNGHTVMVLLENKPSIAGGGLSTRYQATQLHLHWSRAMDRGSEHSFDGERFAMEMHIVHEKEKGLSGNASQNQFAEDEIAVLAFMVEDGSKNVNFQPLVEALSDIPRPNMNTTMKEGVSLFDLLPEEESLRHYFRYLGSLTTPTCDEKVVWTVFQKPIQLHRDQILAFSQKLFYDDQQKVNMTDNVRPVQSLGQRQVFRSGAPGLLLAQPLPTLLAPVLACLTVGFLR
Description: Inhibitory activity against bovine lung microsomes carbonic anhydrase isozyme IV (bCA IV).

Oryctolagus cuniculus [8] = species on record: Oryctolagus cuniculus; format: functional, Eye; remark: listed apart in the source
Description: In vivo fall of IOP of normotensive rabbits after treatment with 1 drop(50 microL) of 2% solution of CA inhibitor with pH value 5.9 into the eye at 0 min

Oryctolagus cuniculus [9] = species on record: Oryctolagus cuniculus; format: functional, Eye; remark: listed apart in the source
Description: In vivo fall of IOP of normotensive rabbits after treatment with 1 drop(50 microL) of 2% solution of CA inhibitor with pH value 5.9 into the eye at 30 min

Oryctolagus cuniculus [10] = species on record: Oryctolagus cuniculus; format: functional, Eye; remark: listed apart in the source
Description: In vivo fall of IOP of normotensive rabbits after treatment with 1 drop(50 microL) of 2% solution of CA inhibitor with pH value 5.9 into the eye at 90 min.

Oryctolagus cuniculus [11] = species on record: Oryctolagus cuniculus; format: functional, Eye; remark: listed apart in the source
Description: In vivo fall of IOP of normotensive rabbits after treatment with 1 drop(50 microL) of 2% solution of CA inhibitor with pH value 5.9 into the eye at 60 min

Oryctolagus cuniculus [12] = species on record: Oryctolagus cuniculus
Description: Compound was tested in vitro for corneal permeability of compound across the intact cornea obtained from rabbit

[13] = Compound was tested for solubility in pH buffer, at 25 degree C.; format: ADME
Oryctolagus cuniculus [14] = species on record: Oryctolagus cuniculus; remark: listed apart in the source
Description: Compound was tested in vitro for corneal permeability of compound across the Denuded epithelial cornea obtained from rabbit

[15] = octanol/water
Description: Partition coefficient (logD) (chloroform/buffer)

Carbonic anhydrase 2 [16] = target: T1, Carbonic anhydrase 2; remark: listed apart in the source
Description: Inhibitory activity against human recombinant carbonic anhydrase II

Carbonic anhydrase 1 [17] = target: T2, Carbonic anhydrase 1; remark: listed apart in the source
Description: Inhibitory activity against human cloned carbonic anhydrase isozyme I (hCA I, cytosolic form).

Oryctolagus cuniculus [18] = species on record: Oryctolagus cuniculus; format: functional, Eye; remark: listed apart in the source
Description: In vivo fall of IOP of Glaucomatous rabbits after treatment with 1 drop(50 microL) of 2% solution of CA inhibitor with pH value 5.5 into the eye at 0 min

Oryctolagus cuniculus [19] = species on record: Oryctolagus cuniculus; format: functional, Eye; remark: listed apart in the source
Description: In vivo fall of IOP of Glaucomatous rabbits after treatment with 1 drop(50 microL) of 2% solution of CA inhibitor with pH value 5.5 into the eye at 60 min

Oryctolagus cuniculus [20] = species on record: Oryctolagus cuniculus; format: functional, Eye; remark: listed apart in the source
Description: In vivo fall of IOP of Glaucomatous rabbits after treatment with 1 drop(50 microL) of 2% solution of CA inhibitor with pH value 5.5 into the eye at 30 min

Oryctolagus cuniculus [21] = species on record: Oryctolagus cuniculus; format: functional, Eye; remark: listed apart in the source
Description: In vivo fall of IOP of Glaucomatous rabbits after treatment with 1 drop(50 microL) of 2% solution of CA inhibitor with pH value 5.5 into the eye at 90 min.

Oryctolagus cuniculus [22] = species on record: Oryctolagus cuniculus; format: functional, Eye; remark: listed apart in the source
Description: Drug concentration was tested in ocular fluids and tissues after 1 hour following the corneal application in normotensive albino rabbits on aqueous humor

Oryctolagus cuniculus [23] = species on record: Oryctolagus cuniculus; format: functional, Eye; remark: listed apart in the source
Description: Drug concentration was tested in ocular fluids and tissues after 1 hour following the corneal application in normotensive albino rabbits on cilirary process

Oryctolagus cuniculus [24] = species on record: Oryctolagus cuniculus; format: functional, Eye; remark: listed apart in the source
Description: Drug concentration was tested in ocular fluids and tissues after 2 hour following the corneal application in normotensive albino rabbits on aqueous humor

Oryctolagus cuniculus [25] = species on record: Oryctolagus cuniculus; format: functional, Eye; remark: listed apart in the source
Description: Drug concentration was tested in ocular fluids and tissues after 2 hour following the corneal application in normotensive albino rabbits on cornea

Oryctolagus cuniculus [26] = species on record: Oryctolagus cuniculus; format: functional, Eye; remark: listed apart in the source
Description: Drug concentration was tested in ocular fluids and tissues after 1 hour following the corneal application in normotensive albino rabbits on cornea

Oryctolagus cuniculus [27] = species on record: Oryctolagus cuniculus; format: functional, Eye; remark: listed apart in the source
Description: Drug concentration was tested in ocular fluids and tissues after 2 hour following the corneal application in normotensive albino rabbits on cilirary process

[28] = Compound was tested for solubility in pH buffer, at 25 degree C.(As sodium hydroxylate salts); format: ADME
[29] = Compound was tested for solubility in pH buffer, at 25 degree C.(As hydrochloride salts); format: ADME
Oryctolagus cuniculus [30] = species on record: Oryctolagus cuniculus; format: functional, Eye; remark: listed apart in the source
Description: In vivo fall of IOP of normotensive rabbits after treatment with 1 drop(50 microL) of 2% solution of CA inhibitor with pH value 8.4 into the eye at 60 min

Oryctolagus cuniculus [31] = species on record: Oryctolagus cuniculus; format: functional, Eye; remark: listed apart in the source
Description: In vivo fall of IOP of normotensive rabbits after treatment with 1 drop(50 microL) of 2% solution of CA inhibitor with pH value 7.4 into the eye at 0 min

Oryctolagus cuniculus [32] = species on record: Oryctolagus cuniculus; format: functional, Eye; remark: listed apart in the source
Description: In vivo fall of IOP of normotensive rabbits after treatment with 1 drop(50 microL) of 2% solution of CA inhibitor with pH value 7.4 into the eye at 60 min

Oryctolagus cuniculus [33] = species on record: Oryctolagus cuniculus; format: functional, Eye; remark: listed apart in the source
Description: In vivo fall of IOP of Glaucomatous rabbits after treatment with 1 drop(50 microL) of 2% solution of CA inhibitor with pH value 7.4 into the eye at 90 min.

Oryctolagus cuniculus [34] = species on record: Oryctolagus cuniculus; format: functional, Eye; remark: listed apart in the source
Description: In vivo fall of IOP of normotensive rabbits after treatment with 1 drop(50 microL) of 2% solution of CA inhibitor with pH value 7.4 into the eye at 90 min.

Oryctolagus cuniculus [35] = species on record: Oryctolagus cuniculus; format: functional, Eye; remark: listed apart in the source
Description: In vivo fall of IOP of normotensive rabbits after treatment with 1 drop(50 microL) of 2% solution of CA inhibitor with pH value 8.4 into the eye at 90 min.

Oryctolagus cuniculus [36] = species on record: Oryctolagus cuniculus; format: functional, Eye; remark: listed apart in the source
Description: In vivo fall of IOP of normotensive rabbits after treatment with 1 drop(50 microL) of 2% solution of CA inhibitor with pH value 7.4 into the eye at 30 min

Oryctolagus cuniculus [37] = species on record: Oryctolagus cuniculus; format: functional, Eye; remark: listed apart in the source
Description: In vivo fall of IOP of Glaucomatous rabbits after treatment with 1 drop(50 microL) of 2% solution of CA inhibitor with pH value 7.4 into the eye at 60 min

Oryctolagus cuniculus [38] = species on record: Oryctolagus cuniculus; format: functional, Eye; remark: listed apart in the source
Description: In vivo fall of IOP of Glaucomatous rabbits after treatment with 1 drop(50 microL) of 2% solution of CA inhibitor with pH value 7.4 into the eye at 30 min

Oryctolagus cuniculus [39] = species on record: Oryctolagus cuniculus; format: functional, Eye; remark: listed apart in the source
Description: In vivo fall of IOP of Glaucomatous rabbits after treatment with 1 drop(50 microL) of 2% solution of CA inhibitor with pH value 7.4 into the eye at 0 min

Oryctolagus cuniculus [40] = species on record: Oryctolagus cuniculus; format: functional, Eye; remark: listed apart in the source
Description: In vivo fall of IOP of normotensive rabbits after treatment with 1 drop(50 microL) of 2% solution of CA inhibitor with pH value 8.4 into the eye at 0 min

Oryctolagus cuniculus [41] = species on record: Oryctolagus cuniculus; format: functional, Eye; remark: listed apart in the source
Description: In vivo fall of IOP of normotensive rabbits after treatment with 1 drop(50 microL) of 2% solution of CA inhibitor with pH value 8.4 into the eye at 30 min

Compound: NS(=O)(=O)c1ccc(NC(=O)c2cccc(C(=O)[O-])n2)c(F)c1.[Na+]
- pDelta IOP (Oryctolagus cuniculus [1]): 4.8 mmHg

Compound: CCN(C(=O)c1cccnc1C(=O)O)C1CC(C)S(=O)(=O)c2sc(S(N)(=O)=O)cc21.CCN(C(=O)c1ncccc1C(=O)O)C1CC(C)S(=O)(=O)c2sc(S(N)(=O)=O)cc21.Cl (stereo not drawn)
- Delta IOP (Oryctolagus cuniculus [2]): 2.4 mmHg
- Delta IOP (Oryctolagus cuniculus [3]): 5.2 mmHg
- Delta IOP (Oryctolagus cuniculus [4]): 0 mmHg
- Delta IOP (Oryctolagus cuniculus [5]): 3.5 mmHg

- Ki (Carbonic anhydrase 2 [6]): 12 nM
- Ki (Carbonic anhydrase 1 [7]): 500 nM
- Ki (Carbonic anhydrase 4): 69 nM
Compound: NS(=O)(=O)c1cc(S(N)(=O)=O)c(N2C(=O)c3cccnc3C2=O)c(Cl)c1Cl

Compound: NS(=O)(=O)c1nc2ccc(N3C(=O)c4cccnc4C3=O)cc2s1.O=S(=O)(O)C(F)(F)F
- Delta IOP (Oryctolagus cuniculus [8]): 0 mmHg
- Delta IOP (Oryctolagus cuniculus [9]): 2 mmHg
- Delta IOP (Oryctolagus cuniculus [10]): 4 mmHg
- Delta IOP (Oryctolagus cuniculus [11]): 4.4 mmHg

- Ki (Carbonic anhydrase 2 [6]): 132 nM
- Ki (Carbonic anhydrase 1 [7]): 15500 nM
- Ki (Carbonic anhydrase 4): 170 nM
Compound: NS(=O)(=O)c1ccc(N2C(=O)c3cccnc3C2=O)cc1

Compound: NS(=O)(=O)c1ccc(NC(=O)c2cccc(C(=O)O)n2)c(F)c1
- Kin (Oryctolagus cuniculus [12]): 1600 h⁻¹
- solubility [13]: 66 mM (≈ 22.4 mg/mL)
- Kin (Oryctolagus cuniculus [14]): 7000 h⁻¹
- logD [15]: 0.117
- Ki (Carbonic anhydrase 2 [16]): 8 nM

Compound: Cn1nc(S(N)(=O)=O)s/c1=N\C(=O)c1cccc(C(=O)O)n1
- Ki (Carbonic anhydrase 1 [17]): 35 nM
- Kin (Oryctolagus cuniculus [12]): 3600 h⁻¹
- solubility [13]: 79 mM (≈ 27.1 mg/mL)
- Kin (Oryctolagus cuniculus [14]): 8500 h⁻¹
- logD [15]: 0.428
- Ki (Carbonic anhydrase 4): 19 nM
- Ki (Carbonic anhydrase 2 [16]): 7 nM

Compound: CCN(C(=O)c1cccc(C(=O)O)n1)C1CC(C)S(=O)(=O)c2sc(S(N)(=O)=O)cc21.Cl (stereo not drawn)
- Delta IOP (Oryctolagus cuniculus [2]): 3.5 mmHg
- Delta IOP (Oryctolagus cuniculus [18]): 0 mmHg
- Delta IOP (Oryctolagus cuniculus [19]): 9.9 mmHg
- Delta IOP (Oryctolagus cuniculus [3]): 6.8 mmHg
- Delta IOP (Oryctolagus cuniculus [20]): 6.5 mmHg
- Delta IOP (Oryctolagus cuniculus [5]): 9.1 mmHg
- Delta IOP (Oryctolagus cuniculus [21]): 12.1 mmHg

Compound: NS(=O)(=O)c1cc(S(N)(=O)=O)c(N2C(=O)c3cccnc3C2=O)cc1Cl
- Ki (Carbonic anhydrase 2 [6]): 9 nM
- Ki (Carbonic anhydrase 1 [7]): 600 nM
- Ki (Carbonic anhydrase 4): 60 nM

Compound: Cl.NS(=O)(=O)c1ccc(NC(=O)c2cccc(C(=O)O)n2)c(F)c1
- Delta IOP (Oryctolagus cuniculus [2]): 2.5 mmHg
- Delta IOP (Oryctolagus cuniculus [3]): 4.2 mmHg
- Delta IOP (Oryctolagus cuniculus [4]): 0 mmHg
- Delta IOP (Oryctolagus cuniculus [5]): 3.9 mmHg

Compound: NS(=O)(=O)c1nnc(NC(=O)c2cccc(C(=O)O)n2)s1
- Ki (Carbonic anhydrase 1 [17]): 36 nM
- Kin (Oryctolagus cuniculus [12]): 1100 h⁻¹
- solubility [13]: 83 mM (≈ 27.3 mg/mL)
- Kin (Oryctolagus cuniculus [14]): 6400 h⁻¹
- logD [15]: 0.085
- Ki (Carbonic anhydrase 4): 21 nM
- Ki (Carbonic anhydrase 2 [16]): 6 nM

Compound: Cl.NS(=O)(=O)c1ccc(CCN2C(=O)c3cccnc3C2=O)cc1
- Delta IOP (Oryctolagus cuniculus [2]): 2.7 mmHg
- Delta IOP (Oryctolagus cuniculus [3]): 4.8 mmHg
- Delta IOP (Oryctolagus cuniculus [4]): 0 mmHg
- Delta IOP (Oryctolagus cuniculus [5]): 4.2 mmHg

Compound: NS(=O)(=O)c1nnc(NC(=O)c2cccc(C(=O)[O-])n2)s1.[Na+]
- Delta IOP (Oryctolagus cuniculus [4]): 0 mmHg

Compound: Cl.NS(=O)(=O)c1nnc(NC(=O)CCN2C(=O)c3cccnc3C2=O)s1
- Drug concentration (Oryctolagus cuniculus [22]): 280 µM
- Drug concentration (Oryctolagus cuniculus [23]): 50 µM
- Drug concentration (Oryctolagus cuniculus [24]): 42 µM
- Drug concentration (Oryctolagus cuniculus [25]): 45 µM
- Drug concentration (Oryctolagus cuniculus [26]): 158 µM
- Drug concentration (Oryctolagus cuniculus [27]): 12 µM

- Ki (Carbonic anhydrase 1 [17]): 400 nM
- solubility [28]: 64 mM
- logD [15]: 1.736
- Ki (Carbonic anhydrase 4): 17 nM
- solubility [29]: 58 mM
- Ki (Carbonic anhydrase 2 [16]): 5 nM
Compound: CCN(C(=O)c1cccc(C(=O)O)n1)C1CC(C)S(=O)(=O)c2sc(S(N)(=O)=O)cc21 (stereo not drawn)
- Kin (Oryctolagus cuniculus [12]): 2800 h⁻¹
- Kin (Oryctolagus cuniculus [14]): 5900 h⁻¹

Compound: Cl.NS(=O)(=O)c1nc2ccc(OCCONC(=O)c3cccc(C(=O)O)n3)cc2s1
- Delta IOP (Oryctolagus cuniculus [2]): 4 mmHg
- Delta IOP (Oryctolagus cuniculus [3]): 7.2 mmHg
- Delta IOP (Oryctolagus cuniculus [4]): 0 mmHg
- Delta IOP (Oryctolagus cuniculus [5]): 9 mmHg

Compound: NS(=O)(=O)c1nnc(NC(=O)CCN2C(=O)c3cccnc3C2=O)s1
- Kin (Oryctolagus cuniculus [12]): 3800 h⁻¹
- solubility [13]: 81 mM (≈ 31 mg/mL)
- Kin (Oryctolagus cuniculus [14]): 9700 h⁻¹
- logD [15]: 0.449
- Ki (Carbonic anhydrase 2 [6]): 3 nM
- Ki (Carbonic anhydrase 1 [7]): 18 nM

- solubility [13]: 0.04 mM (≈ 0.0103 mg/mL)
Compound: CCOc1ccc2nc(S(N)(=O)=O)sc2c1 [ETHOXZOLAMIDE]

Compound: Cl.NS(=O)(=O)c1nnc(N2C(=O)c3cccnc3C2=O)s1
- Delta IOP (Oryctolagus cuniculus [2]): 5.4 mmHg
- Delta IOP (Oryctolagus cuniculus [3]): 9 mmHg
- Delta IOP (Oryctolagus cuniculus [4]): 0 mmHg
- Delta IOP (Oryctolagus cuniculus [5]): 8.1 mmHg

Compound: CCN(C(=O)c1cccc(C(=O)[O-])n1)C1CC(C)S(=O)(=O)c2sc(S(N)(=O)=O)cc21.[Na+] (stereo not drawn)
- Delta IOP (Oryctolagus cuniculus [30]): 7.7 mmHg
- Drug concentration (Oryctolagus cuniculus [22]): 278 µM
- Drug concentration (Oryctolagus cuniculus [23]): 47 µM
- Drug concentration (Oryctolagus cuniculus [24]): 39 µM
- Delta IOP (Oryctolagus cuniculus [31]): 0 mmHg
- Delta IOP (Oryctolagus cuniculus [32]): 7.2 mmHg
- Drug concentration (Oryctolagus cuniculus [25]): 44 µM
- Delta IOP (Oryctolagus cuniculus [33]): 11.8 mmHg
- Delta IOP (Oryctolagus cuniculus [34]): 9.8 mmHg
- Delta IOP (Oryctolagus cuniculus [35]): 9.9 mmHg
- Drug concentration (Oryctolagus cuniculus [26]): 113 µM
- Drug concentration (Oryctolagus cuniculus [27]): 10 µM
- Delta IOP (Oryctolagus cuniculus [36]): 3.5 mmHg
- Delta IOP (Oryctolagus cuniculus [37]): 10.1 mmHg
- Delta IOP (Oryctolagus cuniculus [38]): 6.5 mmHg
- Delta IOP (Oryctolagus cuniculus [39]): 0 mmHg
- Delta IOP (Oryctolagus cuniculus [40]): 0 mmHg
- Delta IOP (Oryctolagus cuniculus [41]): 3.6 mmHg

Compound: NS(=O)(=O)c1nnc(N2C(=O)c3cccnc3C2=O)s1
- Kin (Oryctolagus cuniculus [12]): 2500 h⁻¹
- solubility [13]: 72 mM (≈ 22.4 mg/mL)
- Kin (Oryctolagus cuniculus [14]): 7600 h⁻¹
- logD [15]: 0.315
- Ki (Carbonic anhydrase 2 [6]): 8 nM
- Ki (Carbonic anhydrase 1 [7]): 39 nM
- Ki (Carbonic anhydrase 4): 18 nM

- Ki (Carbonic anhydrase 2 [6]): 4 nM
- Ki (Carbonic anhydrase 1 [7]): 12 nM
- Ki (Carbonic anhydrase 4): 9 nM
Compound: NS(=O)(=O)c1nc2ccc(N3C(=O)c4cccnc4C3=O)cc2s1

- Ki (Carbonic anhydrase 2 [6]): 250 nM
- Ki (Carbonic anhydrase 1 [7]): 20000 nM
- Ki (Carbonic anhydrase 4): 305 nM
Compound: NS(=O)(=O)c1cccc(N2C(=O)c3cccnc3C2=O)c1
